Article PMC3401907, “Cellular Uptakes, Biostabilities and Anti-miR-210 Activities of Chiral Arginine-PNAs in Leukaemic K562 Cells” (Chembiochem, 2012)

Columns and labels:
[1] = system: let-7c, miR-10a, miR-93, miR-99b, miR-126, miR-149, miR-424, miR-494, miR-483-5p and miR-625; test: Content of other microRNAs by RT-PCR (sequence specificity); format: cell-based, human; settings: n=3
Description: Figure 5 A), B) Effects of treatment with PNA1, PNA2, PNA3, PNA4, PNA5 and PNA6 molecules on miR-210 contents in cells cultured for 24 h A) in the absence (□), and B) in the presence (▪) of MTH (15 nM). Data are reported as arbitrary units relative to cells treated with pept-1 (□) or with pept-1 and MTH (▪). C) Effects of treatment with PNA4 on miRNA contents in cells cultured for 24 h in the presence of MTH; RT-PCR was performed with a TaqMan MicroRNA Reverse Transcription Kit (Applied Biosystems) for let-7c, miR-10a, miR-93, miR-99b, miR-126, miR-149, miR-424, miR-483-5p and miR-625. Data are reported as arbitrary units relative to untreated cells (average ±SD; n=3).
Real-time quantitative PCR: For microRNA quantification with real-time RT-PCR reagents, the primers and probes were obtained from Applied Biosystems. […] Relative expression was calculated by the comparative cycle threshold method and U6 microRNA was used as reference gene to normalise all RNA samples, because it is constant in the assayed samples by miR-profiling and quantitative RT-PCR analysis as previously reported.[25]

γ-globin gene expression = γ-globin gene expression by RT-qPCR; format: cell-based, human; settings: mithramycin-treated (15 nM) K562 cells, PNA 2 μM single administration, 72 h, n=3
Description: The strong inhibition of miR-210 by PNA2 and PNA4 might thus result in appreciable reduction of γ-globin gene expression.
Figure 6 A) Effects of pept-1, PNA1, PNA2 and PNA4 molecules (each 2 μM) on γ-globin content in K562 cell cultures for 72 h with MTH (15 nM). Data are reported as arbitrary units relative to cells treated with pept-1 and MTH (average±SD, n=3, *: p<0.05, **: p<0.01). B), C) Effects of treatment (72 h) with pept-1, PNA1, PNA2 and PNA4 molecules on K562 cells induced to erythroid differentiation by MTH (15 nM): B) summary of three independent experiments, C) a representative experiment showing staining of the cells with benzidine.
The nucleotide sequences used for real-time qPCR analysis of γ-globin mRNAs were γ-globin forward primer (5′-TGGCAA GAAGGT GCTGAC TTC-3′), γ-globin reverse primer (5′-TCACTC AGCTGG GCAAAG G-3′) and γ-globin probe (5′-FAM-TGGGAG ATGCCA TAAAGC ACCTGG-TAMRA-3′).[25] The relative expression was calculated by the comparative cycle threshold method with endogenous control human 18S rRNA as reference genes.[25]

H-C5LArgC5LArgG5LArgC5LArgT5LArgG5LArgT5LArgC5LArgACACGCACAG-NH2 [PNA4, 5L Arg (C5) backbone-modified 18-mer PNA, model 2, stretch of consecutive modified monomers]
effect on miR-149 hybridisation signal ([1]; K562 cells 24 h in the presence of MTH, RT-PCR): inhibition of the hybridisation signal | effect on hybridisation availability of other miRs ([1]; K562 cells 24 h with MTH, let-7c, miR-10a, miR-93, miR-99b, miR-126, miR-424, miR-494, miR-483-5p, miR-625): no major effects | effect on γ-globin gene expression (γ-globin gene expression): inhibited γ-globin gene expression
